Assay results: patent US9067943B2, “[1,2,3]triazolo[4,5-D]pyrimidine derivatives” (priority 2011, dated 2015)
Read-outs that look alike come from different tables or passages of the source.

Legend:
human CB1 receptors = target: T1, human CB1 receptors (Homo sapiens, UniProt P21554); assay: cAMP assay; format: cell-based
T1 construct: expressed in transfected cells; host or cells: CHO cells
Method in brief: (§1)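 CHO cells expressing human CB1 or CB2 were preincubated 30 min at 30 °C in Krebs Ringer bicarbonate buffer with 1 mM IBMX, then exposed to compounds for 30 min at 30 °C. cAMP was measured by time-resolved FRET against a cAMP standard curve, and EC50 values were derived.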

human CB2 receptors = target: T2, human CB2 receptors (Homo sapiens, UniProt P34972); assay: cAMP assay; format: cell-based
T2 construct: expressed in transfected cells; host or cells: CHO cells
Method in brief: as §1

[1] = functional cAMP assay, CHO cells expressing human CB2, read-out: human CB2 EC50

T2 sequence (P34972 whole entry): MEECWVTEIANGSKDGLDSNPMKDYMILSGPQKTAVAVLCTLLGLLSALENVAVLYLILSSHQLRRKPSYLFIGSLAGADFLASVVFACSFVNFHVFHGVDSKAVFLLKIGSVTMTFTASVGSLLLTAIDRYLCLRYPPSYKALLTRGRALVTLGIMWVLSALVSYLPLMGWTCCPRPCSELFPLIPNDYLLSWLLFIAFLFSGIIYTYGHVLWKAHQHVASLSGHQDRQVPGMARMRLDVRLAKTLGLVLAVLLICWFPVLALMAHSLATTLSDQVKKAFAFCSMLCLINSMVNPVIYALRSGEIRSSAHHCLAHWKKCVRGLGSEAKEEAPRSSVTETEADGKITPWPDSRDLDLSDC
T1 sequence (P21554 whole entry): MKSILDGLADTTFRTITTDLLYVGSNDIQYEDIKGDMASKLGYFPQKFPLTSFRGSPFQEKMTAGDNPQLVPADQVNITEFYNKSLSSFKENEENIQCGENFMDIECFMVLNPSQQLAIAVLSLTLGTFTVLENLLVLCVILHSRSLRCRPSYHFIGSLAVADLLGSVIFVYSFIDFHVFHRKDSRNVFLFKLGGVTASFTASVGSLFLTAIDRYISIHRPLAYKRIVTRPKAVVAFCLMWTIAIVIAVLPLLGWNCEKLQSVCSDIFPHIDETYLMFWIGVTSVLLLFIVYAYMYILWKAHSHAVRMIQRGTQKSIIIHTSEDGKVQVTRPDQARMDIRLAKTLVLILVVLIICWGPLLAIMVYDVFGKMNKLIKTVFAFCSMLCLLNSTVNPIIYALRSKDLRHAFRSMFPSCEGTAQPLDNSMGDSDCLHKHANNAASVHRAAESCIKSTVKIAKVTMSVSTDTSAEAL

Compound	EC50 (human CB1 receptors) [µM]	EC50 (human CB2 receptors; [1]) [µM]	EC50 (human CB2 receptors) [µM]
Cn1nnnc1Cn1nc2nc(C(C)(C)C)nc(N3CC[C@@](C)(O)C3)c2n1 [Example 130-b, (R)-1-[5-tert-Butyl-2-(1-methyl-1H-tetrazol-5-ylmethyl)-2H-[1,2,3]triazolo[4,5-d]pyrimidin-7-yl]-3-methyl-pyrrolidin-3-ol]	> 10	0.798	–
Cc1nonc1Cn1nc2nc(C(C)(C)C)nc(N3CC[C@](C)(O)C3)c2n1 [Example 131-a, (S)-1-[5-tert-Butyl-2-(4-methyl-furazan-3-ylmethyl)-2H-[1,2,3]triazolo[4,5-d]pyrimidin-7-yl]-3-methyl-pyrrolidin-3-ol]	> 10	–	0.0102
Cc1nonc1Cn1nc2nc(C(C)(C)C)nc(N3CC[C@@](C)(O)C3)c2n1 [Example 131-b, (R)-1-[5-tert-Butyl-2-(4-methyl-furazan-3-ylmethyl)-2H-[1,2,3]triazolo[4,5-d]pyrimidin-7-yl]-3-methyl-pyrrolidin-3-ol]	> 10	–	0.0614
CC(C)(C)c1nc(N2CC[C@](C)(O)C2)c2nn(CCC(F)(F)F)nc2n1 [Example 132-a, (S)-1-[5-tert-Butyl-2-(3,3,3-trifluoro-propyl)-2H-[1,2,3]triazolo[4,5-d]pyrimidin-7-yl]-3-methyl-pyrrolidin-3-ol]	> 10	–	0.0181
CC(C)(C)c1nc(N2CC[C@@](C)(O)C2)c2nn(CCC(F)(F)F)nc2n1 [Example 132-b, (R)-1-[5-tert-Butyl-2-(3,3,3-trifluoro-propyl)-2H-[1,2,3]triazolo[4,5-d]pyrimidin-7-yl]-3-methyl-pyrrolidin-3-ol]	> 10	–	0.0698
CC(C)(C)c1nc(N2CC[C@](C)(O)C2)c2nn(Cc3nnnn3C3CC3)nc2n1 [Example 133-a, (S)-1-[5-tert-Butyl-2-(1-cyclopropyl-1H-tetrazol-5-ylmethyl)-2H-[1,2,3]triazolo[4,5-d]pyrimidin-7-yl]-3-methyl-pyrrolidin-3-ol]	> 10	0.126	–
CC(C)(C)c1nc(N2CC[C@@](C)(O)C2)c2nn(Cc3nnnn3C3CC3)nc2n1 [Example 133-b, (R)-1-[5-tert-Butyl-2-(1-cyclopropyl-1H-tetrazol-5-ylmethyl)-2H-[1,2,3]triazolo[4,5-d]pyrimidin-7-yl]-3-methyl-pyrrolidin-3-ol]	> 10	0.547	–
CC(=O)N[C@H]1CCN(c2nc(OCC(C)(C)C)nc3nn(Cc4ccccc4Cl)nc23)C1 [Example 134, N—{(S)-1-[2-(2-Chloro-benzyl)-5-(2,2-dimethyl-propoxy)-2H-[1,2,3]triazolo[4,5-d]pyrimidin-7-yl]-pyrrolidin-3-yl}-acetamide]	> 10	0.682	–
CC(=O)N[C@H]1CCN(c2nc(OCC(C)(C)C)nc3nn(Cc4ncccc4Cl)nc23)C1 [Example 135, N—{(S)-1-[2-(3-Chloro-pyridin-2-ylmethyl)-5-(2,2-dimethyl-propoxy)-2H-[1,2,3]triazolo[4,5-d]pyrimidin-7-yl]-pyrrolidin-3-yl}-acetamide]	> 10	0.606	–
CC(C)(C)Nc1nc(N2CCC(F)(F)C2)c2nn(Cc3ccccc3C(F)(F)F)nc2n1 [Example 136, tert-Butyl-[7-(3,3-difluoro-pyrrolidin-1-yl)-2-(2-trifluoromethyl-benzyl)-2H-[1,2,3]triazolo[4,5-d]pyrimidin-5-yl]-amine]	> 10	–	0.035
CC(C)(C)Nc1nc(N2CCC(F)(F)C2)c2nn(Cc3ccccc3S(C)(=O)=O)nc2n1 [Example 137, tert-Butyl-[7-(3,3-difluoro-pyrrolidin-1-yl)-2-(2-methanesulfonyl-benzyl)-2H-[1,2,3]triazolo[4,5-d]pyrimidin-5-yl]-amine]	> 10	–	0.0053
CC(C)(C)Nc1nc(N2CCC(F)(F)C2)c2nn(Cc3ncccc3Cl)nc2n1 [Example 138, tert-Butyl-[2-(3-chloro-pyridin-2-ylmethyl)-7-(3,3-difluoro-pyrrolidin-1-yl)-2H-[1,2,3]triazolo[4,5-d]pyrimidin-5-yl]-amine]	> 10	–	0.054
Cn1nnnc1Cn1nc2nc(NC(C)(C)C)nc(N3CCC(F)(F)C3)c2n1 [Example 139, tert-Butyl-[7-(3,3-difluoro-pyrrolidin-1-yl)-2-(1-methyl-1H-tetrazol-5-ylmethyl)-2H-[1,2,3]triazolo[4,5-d]pyrimidin-5-yl]-amine]	> 10	–	0.0281
Cc1nonc1Cn1nc2nc(NC(C)(C)C)nc(N3CCC(F)(F)C3)c2n1 [Example 140, tert-Butyl-[7-(3,3-difluoro-pyrrolidin-1-yl)-2-(4-methyl-furazan-3-ylmethyl)-2H-[1,2,3]triazolo[4,5-d]pyrimidin-5-yl]-amine]	> 10	–	0.0061
CC(=O)N[C@H]1CCN(c2nc(O[C@@H](C)C(F)(F)F)nc3nn(Cc4ccccc4Cl)nc23)C1 [Example 141, N—{(S)-1-[2-(2-Chloro-benzyl)-5-((S)-2,2,2-trifluoro-1-methyl-ethoxy)-2H-[1,2,3]triazolo[4,5-d]pyrimidin-7-yl]-pyrrolidin-3-yl}-acetamide]	> 10	1.15	–
CC(=O)N[C@H]1CCN(c2nc(O[C@@H](C)C(F)(F)F)nc3nn(Cc4ccccc4C(F)(F)F)nc23)C1 [Example 142, N—{(S)-1-[2-(2-Trifluoromethyl-benzyl)-5-((S)-2,2,2-trifluoro-1-methyl-ethoxy)-2H-[1,2,3]triazolo[4,5-d]pyrimidin-7-yl]-pyrrolidin-3-yl}-acetamide]	> 10	1.11	–
CC(=O)N[C@H]1CCN(c2nc(O[C@@H](C)C(F)(F)F)nc3nn(Cc4ccccc4S(C)(=O)=O)nc23)C1 [Example 143, N—{(S)-1-[2-(2-Methanesulfonyl-benzyl)-5-((S)-2,2,2-trifluoro-1-methyl-ethoxy)-2H-[1,2,3]triazolo[4,5-d]pyrimidin-7-yl]-pyrrolidin-3-yl}-acetamide]	> 10	1.73	–
CC(=O)N[C@H]1CCN(c2nc(NC(C)(C)C)nc3nn(Cc4ccccc4Cl)nc23)C1 [Example 144, N—{(S)-1-[5-tert-Butylamino-2-(2-chloro-benzyl)-2H-[1,2,3]triazolo[4,5-d]pyrimidin-7-yl]-pyrrolidin-3-yl}-acetamide]	> 10	1.95	–
Cn1nnnc1Cn1nc2nc(NC(C)(C)C)nc(N3CC[C@H](O)C3)c2n1 [Example 145, (S)-1-[5-tert-Butylamino-2-(1-methyl-1H-tetrazol-5-ylmethyl)-2H-[1,2,3]triazolo[4,5-d]pyrimidin-7-yl]-pyrrolidin-3-ol]	> 10	1.09	–
